Assay [1] has as its system mRNA isoforms harboring PTCs in MDA-MB-468 cells. Description: Fluorescence pulse-chase RNA labeling assay. The assay is classed as cell-based, human. To be noted: 50 μM Cpd-1 or 5 μM Cpd-2. Here is the method:
MDA-MB-468 cells (5 × 10^5) were seeded into 6-well plates and incubated overnight. The cells were treated with each compound for 6 h and incubated with culture medium containing 5-EU (Invitrogen) to label cellular RNA. After incubation for 1 h, the medium was replaced with EU-free fresh medium and the cells were cultured for a further 24 h to allow degradation of the labeled RNA (chase). Cells were harvested before and after the chase and EU-labeled RNA was isolated using a Click-iT Nascent RNA Capture Kit (Invitrogen) according to the manufacturer’s instructions. The isolated RNA was analyzed by quantitative RT-PCR to measure the amount of each mRNA splice isoform.

The next assay has as its target PI3Kα (Homo sapiens, UniProt P42336). Put plainly: Kinase panel assay (Z'-LYTE, SelectScreen), PI3Kα. It is filed as biochemical. The note with it: 1 μM compound, 100 μM ATP; among kinases inhibited by more than 50%. The method, then:
Kinase panel assays were performed using the FRET-based Z’- LYTE enzymatic kinase assay system (Life Technologies, Carlsbad, CA), which was carried out using the SelectScreen Kinase Profiling Service (Life Technologies). The standard reaction contained 2 μM peptide substrate, 100 μM ATP, 50 mM HEPES (pH 7.5), 0.01% Brij-35, 10 mM MgCl2, 1 mM EGTA, and each kinase. Cpd-1, Cpd-2, and Cpd-3 at two point concentration (100 and 1000 nM) with duplicate data points (n = 2) were assayed following the detailed procedures outlined in the SelectScreen. The full assay protocol and conditions can be obtained at www.lifetechnologies.com. Percent inhibition represents a ratio of phosphorylated product formed in the presence of the compound compared with phosphorylated product formed in reactions containing 1% DMSO. Inhibition data indicates the mean value of kinase inhibition from duplicate data.

The subject of assay [2] is phospho-SR proteins in MDA-MB-468 cells. Description: Immunoblot of phospho-SR proteins. The assay is classed as cell-based, human. The note with it: MDA-MB-468, 3 h, anti-pan-phospho-SR antibody. The method, then: (§1) Cells were lysed in radioimmunoprecipitation assay buffer containing 50 mM Tris-HCl (pH 7.6), 150 mM NaCl, 1% Triton X-100, and protease inhibitor cocktail tablets (Roche). After removal of the insoluble matter by centrifugation at 15,000 rpm for 15 min, the protein concentrations of the supernatants were determined using a BCA Protein Assay Kit (Pierce Biotechnology, Rockford, IL). The lysates were directly combined with one-quarter volume of 5× sample buffer [25 mmol/L Tris-HCl pH 6.8, 10% glycerol, 0.8% SDS, and 0.004% bromophenol blue] and boiled at 100°C for 5 min. The samples were subjected to 5–20% gradient SDS-polyacrylamide gel electrophoresis, and the separated proteins were electrophoretically transferred to polyvinylidene difluoride membranes using an I-blot System (Invitrogen). The membranes were incubated with primary antibodies and visualized using enhanced chemiluminescence reagents (GE Healthcare). The primary antibodies were as follows: anti-phospho-SR (1H4), anti-SR (Invitrogen), anti-EGFR, anti-EIF3D, anti-GAPDH (Santa Cruz Biotechnology, Santa Cruz, CA), anti-S6K and anti-PARP (Cell Signaling Technology, Danvers, MA).

The test system of assay [3] is S6K, EIF3D, and EGFR in MDA-MB-468 cells. Description: Immunoblot of S6K, EIF3D and EGFR protein levels. It is filed as cell-based, human. To be noted: MDA-MB-468, 24 h. The method, then:
as §1

PI3Kα, sequence (P42336 whole entry): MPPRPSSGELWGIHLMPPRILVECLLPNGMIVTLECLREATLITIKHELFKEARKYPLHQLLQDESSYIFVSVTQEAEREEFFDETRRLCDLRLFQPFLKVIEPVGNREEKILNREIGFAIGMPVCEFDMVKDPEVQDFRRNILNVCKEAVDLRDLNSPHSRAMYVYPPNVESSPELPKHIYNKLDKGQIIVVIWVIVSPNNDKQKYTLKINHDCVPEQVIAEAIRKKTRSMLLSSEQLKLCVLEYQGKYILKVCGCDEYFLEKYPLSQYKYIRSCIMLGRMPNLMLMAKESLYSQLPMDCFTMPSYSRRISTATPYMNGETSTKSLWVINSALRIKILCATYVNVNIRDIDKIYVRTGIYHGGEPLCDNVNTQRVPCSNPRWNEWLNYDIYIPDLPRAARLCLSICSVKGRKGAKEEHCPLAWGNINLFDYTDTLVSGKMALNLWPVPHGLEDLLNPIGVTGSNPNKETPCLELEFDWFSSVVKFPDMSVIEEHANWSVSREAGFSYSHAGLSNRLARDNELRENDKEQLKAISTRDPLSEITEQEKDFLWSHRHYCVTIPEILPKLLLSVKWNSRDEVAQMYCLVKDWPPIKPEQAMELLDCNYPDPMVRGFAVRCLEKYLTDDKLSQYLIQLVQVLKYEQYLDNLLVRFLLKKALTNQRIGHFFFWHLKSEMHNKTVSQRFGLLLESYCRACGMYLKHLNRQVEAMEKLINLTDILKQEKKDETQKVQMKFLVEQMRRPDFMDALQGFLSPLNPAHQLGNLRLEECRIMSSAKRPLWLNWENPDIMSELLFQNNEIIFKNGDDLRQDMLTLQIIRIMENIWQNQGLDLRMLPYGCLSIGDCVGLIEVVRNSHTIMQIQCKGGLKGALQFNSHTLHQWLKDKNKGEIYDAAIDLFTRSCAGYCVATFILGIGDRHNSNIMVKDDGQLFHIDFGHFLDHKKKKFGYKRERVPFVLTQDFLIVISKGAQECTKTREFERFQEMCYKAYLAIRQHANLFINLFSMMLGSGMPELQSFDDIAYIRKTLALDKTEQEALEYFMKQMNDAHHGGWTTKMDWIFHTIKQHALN
PI3Kα, sequence (P27986 whole entry partner): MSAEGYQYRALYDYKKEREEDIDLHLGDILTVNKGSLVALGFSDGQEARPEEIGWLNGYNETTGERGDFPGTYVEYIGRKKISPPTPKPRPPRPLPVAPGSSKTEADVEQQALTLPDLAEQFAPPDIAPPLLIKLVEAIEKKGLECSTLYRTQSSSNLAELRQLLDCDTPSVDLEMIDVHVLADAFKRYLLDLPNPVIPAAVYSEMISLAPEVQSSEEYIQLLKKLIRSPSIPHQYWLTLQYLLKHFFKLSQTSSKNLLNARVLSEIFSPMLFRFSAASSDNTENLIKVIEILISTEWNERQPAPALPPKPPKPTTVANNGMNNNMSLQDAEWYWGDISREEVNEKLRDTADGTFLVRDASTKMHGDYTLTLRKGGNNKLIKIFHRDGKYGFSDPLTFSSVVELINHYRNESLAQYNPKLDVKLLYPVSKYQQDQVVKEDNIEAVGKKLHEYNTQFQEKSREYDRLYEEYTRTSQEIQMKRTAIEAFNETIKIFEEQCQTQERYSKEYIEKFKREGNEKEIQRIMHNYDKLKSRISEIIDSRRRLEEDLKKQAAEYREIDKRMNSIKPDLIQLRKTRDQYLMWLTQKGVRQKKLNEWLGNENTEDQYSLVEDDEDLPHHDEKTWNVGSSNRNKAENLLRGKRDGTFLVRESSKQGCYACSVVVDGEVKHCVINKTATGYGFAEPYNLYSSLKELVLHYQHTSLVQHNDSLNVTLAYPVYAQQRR

Turning to `CC(C)(CCc1nnn[nH]1)c1ccc(C(=O)Nc2cn3cc(C(F)(F)F)ccc3n2)cc1` [Cpd-1, 4-(2-methyl-4-(1H-tetrazol-5-yl)butan-2-yl)-N-(6-(trifluoromethyl)imidazo[1,2-a]pyridin-2-yl)benzamide], the “amounts of S6K mRNA isoforms harboring PTCs (exons 6–8, exons 6–10) versus canonical S6K exons 6–7 after 24 h chase” value in assay [1] was “significantly lower”.
`CC(C)(C)c1ccc(C(=O)Nc2cn3cc(-c4cn[nH]c4)ccc3n2)cn1` [Cpd-2, 6-tert-butyl-N-(6-(1H-pyrazol-4-yl)imidazo[1,2-a]pyridin-2-yl)nicotinamide]: the “inhibition of PI3Kα in kinase panel” value on PI3Kα is recorded as “moderately inhibited”. In assay [2], the “Phospho-SRSF1 (SF2) level” value is listed as “decreased” and the “phosphorylation levels of SRSF4 (SRp75)” value is on record as “at lower concentrations than Cpd-1”. For the same compound, the “amounts of S6K mRNA isoforms harboring PTCs (exons 6–8, exons 6–10) versus canonical S6K exons 6–7 after 24 h chase” value in assay [1] is “significantly lower”. In addition, in assay [3], the “protein levels of S6K, EIF3D, and EGFR” value was “reduced the protein levels of S6K, EIF3D, and EGFR in a concentration-dependent manner”.
For `CC(C)(CO)c1ccc(C(=O)Nc2cn3cc(-c4cn[nH]c4)ccc3n2)cc1` [Cpd-3, 4-(1-hydroxy-2-methylpropan-2-yl)-N-(6-(1H-pyrazol-4-yl)imidazo[1,2-a]pyridin-2-yl)benzamide], in assay [2], the “Phospho-SRSF1 (SF2) level” value is reported as “decreased” and the “phosphorylation levels of SRSF4 (SRp75)” value is given as “at lower concentrations than Cpd-1”.

For the origin of these results see PMC4291223, “Inhibitors of CLK Protein Kinases Suppress Cell Growth and Induce Apoptosis by Modulating Pre-mRNA Splicing” (PLoS ONE, 2015).
